Measured values reported in BindingDB's records for doi:10.1021/jm015552m (Universita' Degli Studi Di Siena, 2001).

Legend:
[1] = target: Glutamate receptor 1 (Rattus norvegicus) (UniProt P19490); assay: The potency at recombinant rat AMPA-R was measured on GluR1 receptor expressed in Xenopus Laevis oocytes
[2] = target: Glutamate receptor 1 (Rattus norvegicus) (UniProt P19490); assay: Binding affinity towards GluR1 receptor from rat brain

Glutamate receptor 1 (Rattus norvegicus), sequence (P19490 whole entry, looked up): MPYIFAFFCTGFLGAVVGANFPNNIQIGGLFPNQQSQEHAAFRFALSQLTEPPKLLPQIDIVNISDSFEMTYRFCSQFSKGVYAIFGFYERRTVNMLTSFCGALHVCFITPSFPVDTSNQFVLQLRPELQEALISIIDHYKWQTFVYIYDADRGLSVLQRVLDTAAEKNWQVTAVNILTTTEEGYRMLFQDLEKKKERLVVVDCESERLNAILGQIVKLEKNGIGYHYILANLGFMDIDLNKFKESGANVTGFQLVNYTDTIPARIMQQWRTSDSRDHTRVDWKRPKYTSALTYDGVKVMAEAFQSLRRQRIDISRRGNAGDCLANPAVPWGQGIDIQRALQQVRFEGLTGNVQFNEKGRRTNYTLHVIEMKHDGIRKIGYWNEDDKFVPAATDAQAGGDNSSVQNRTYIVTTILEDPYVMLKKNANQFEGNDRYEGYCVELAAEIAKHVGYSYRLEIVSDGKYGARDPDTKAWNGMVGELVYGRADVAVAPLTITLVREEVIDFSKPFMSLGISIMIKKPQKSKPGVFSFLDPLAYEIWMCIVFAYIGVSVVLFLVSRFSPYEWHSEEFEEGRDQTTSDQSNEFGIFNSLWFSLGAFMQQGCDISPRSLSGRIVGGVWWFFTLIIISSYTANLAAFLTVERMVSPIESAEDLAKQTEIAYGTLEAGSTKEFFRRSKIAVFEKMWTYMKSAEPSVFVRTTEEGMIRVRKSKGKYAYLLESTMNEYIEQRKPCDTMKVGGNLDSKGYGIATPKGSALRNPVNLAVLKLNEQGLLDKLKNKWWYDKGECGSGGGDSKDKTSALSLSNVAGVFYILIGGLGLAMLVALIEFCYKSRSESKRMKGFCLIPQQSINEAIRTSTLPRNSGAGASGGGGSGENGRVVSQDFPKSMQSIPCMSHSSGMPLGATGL

- EC50 [1]: 24.9 µM
- Ki [2]: 0.109 µM
SMILES: N[C@@H](Cn1c2c(c(=O)[nH]c1=O)CCC2)C(=O)O [2-Amino-3-(2,4-dioxo-2,3,4,5,6,7-hexahydro-cyclopentapyrimidin-1-yl)-propionic acid]
